The values that follow come from US20120022078A1, “ARYL INDOLE DERIVATIVES” (MSD K.K., priority 2010, published 2012).

pIC50: −log10 of the molar value.

For the assay, the target named is T1, human QRFP receptor (GPR103) (Homo sapiens, UniProt Q96P65).
T1 construct: expressed in transfected cells; host or cells: NFAT β-Lactamase CHO-K1 host cells (Aurora); membrane specimen
T1 sequence (Q96P65 1-431): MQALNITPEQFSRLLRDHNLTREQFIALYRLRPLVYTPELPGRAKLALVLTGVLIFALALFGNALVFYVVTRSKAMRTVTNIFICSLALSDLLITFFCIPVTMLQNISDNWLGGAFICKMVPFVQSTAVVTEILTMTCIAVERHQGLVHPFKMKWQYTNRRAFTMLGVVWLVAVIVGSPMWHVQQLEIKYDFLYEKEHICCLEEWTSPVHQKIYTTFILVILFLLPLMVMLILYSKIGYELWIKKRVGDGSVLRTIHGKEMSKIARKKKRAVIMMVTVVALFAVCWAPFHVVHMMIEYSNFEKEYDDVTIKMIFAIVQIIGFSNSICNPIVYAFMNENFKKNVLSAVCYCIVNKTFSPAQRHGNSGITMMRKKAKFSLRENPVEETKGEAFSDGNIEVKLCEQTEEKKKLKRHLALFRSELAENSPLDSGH
The experiment in a line: QRFP43 binding inhibition test ([125I]QRFP43, membranes of GPR103-expressing CHO-K1 cells). The following applies: membrane specimen from QRFP receptor (GPR103) expressing cells, 25° C., 1 hour, 20,000 cpm [125I]QRFP43; read-out: IC50 (50% inhibition concentration for the specific [125I] QRFP43 binding). An excerpt:
The cDNA sequence [Accession No. NM_198179] that codes for human QRFP receptor (GPR103) was cloned into an expression vector pEF1V5-HisB (Invitrogen). The expression vector so prepared was transfected into NFAT β-Lactamase CHO-K1 host cells (Aurora) to obtain QRFP receptor (GPR103) expressing cells, using the cationic lipid method [see Proceedings of the National Academy of Sciences of the United States of America, Vol. 84, p. 7413 (1987)].
The membrane specimen prepared from the QRFP receptor (GPR103) expressing cells was incubated at 25° C. for 1 hour with a test compound and 20,000 cpm [^125I ] QRFP43 (PerkinElmer, Inc.) in an assay buffer (50 mM Tris-HCl, 1 mM EDTA, and 0.1% BSA, pH 7.4), followed by filtration using a glass filter GF/C. After washing with a 50 mM Tris-HCl (containing 2 mM EDTA, 10 mM MgCl2, and 0.04% Tween-20) buffer at pH 7.4, the radioactivity on the glass filter was determined using a gamma counter. Non-specific binding was measured in the presence of 1 μM peptide QRFP43, and 50% inhibition concentration (IC50 value) of the test compound for the specific [^125I] QRFP43 binding was determined [see Endocrinology, Vol. 131, p. 2090 (1992)].
Regarding `CN1CCN(Cc2cnc(-c3cc4ccccc4n3C)s2)CC1` [Example 1, 1-Methyl-2-{5-[(4-methylpiperazin-1-yl)methyl]-1,3-thiazol-2-yl}-1H-indole], the pIC50 is 7.30.

`CN1CCN(Cc2cc(-c3cc4ccccc4n3C)ncc2F)CC1` [Example 2]: the pIC50 is 7.48.

With `CN1CCN(Cc2ccc(F)c(-c3cc4ccccc4n3C)c2)CC1` [Example 3, 2-{2-Fluoro-5-[(4-methylpiperazin-1-yl)methyl]phenyl}-1-methyl-1H-indole], the pIC50 is 7.32.

On to `CN1CCN(Cc2cnc(F)c(-c3cc4ccccc4n3C)c2)CC1` [Example 4], for which the pIC50 was 7.28.

Consider `CN1CCN(Cc2cncc(-c3cc4ccccc4n3C)c2)CC1` [Example 5, 1-Methyl-2-{5-[(4-methylpiperazin-1-yl)methyl]pyridin-3-yl}-1H-indole], for which the pIC50 was 6.95.
